This is an account of results in ChEMBL document CHEMBL5465560, “Selectivity Literature for EUbOPEN Chemogenomic Library” (2024).

Assay [1] has as its target Death-associated protein kinase 2 (Homo sapiens) (UniProt Q9UIK4). As to conditions: at 10 µM.
The target in assay [2] is T1, Interleukin-1 receptor-associated kinase 4 (Homo sapiens) (UniProt Q9NWZ3).
T1 sequence (whole entry): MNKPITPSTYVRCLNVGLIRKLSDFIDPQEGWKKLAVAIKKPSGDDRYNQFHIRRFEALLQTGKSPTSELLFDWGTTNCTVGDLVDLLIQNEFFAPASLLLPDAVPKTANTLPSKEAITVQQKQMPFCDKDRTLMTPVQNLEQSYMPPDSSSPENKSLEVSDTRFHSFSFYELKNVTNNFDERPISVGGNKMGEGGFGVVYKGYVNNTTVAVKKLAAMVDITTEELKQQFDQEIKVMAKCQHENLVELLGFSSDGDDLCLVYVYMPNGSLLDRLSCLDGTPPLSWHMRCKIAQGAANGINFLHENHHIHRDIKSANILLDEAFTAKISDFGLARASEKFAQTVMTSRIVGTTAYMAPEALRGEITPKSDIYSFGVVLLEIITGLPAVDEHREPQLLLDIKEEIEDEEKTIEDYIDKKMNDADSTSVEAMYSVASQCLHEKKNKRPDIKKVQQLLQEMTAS
The assay is described as follows: Selectivity interaction (KinomeScan (DiscoverX)) EUB0000695a IRAK4. As to conditions: at 100 nM.

In assay [3] the target is Dual specificity protein kinase CLK3 (Homo sapiens, UniProt P49761). The note with it: at 10 µM.
Chain of Dual specificity protein kinase CLK3 (P49761 whole entry, looked up): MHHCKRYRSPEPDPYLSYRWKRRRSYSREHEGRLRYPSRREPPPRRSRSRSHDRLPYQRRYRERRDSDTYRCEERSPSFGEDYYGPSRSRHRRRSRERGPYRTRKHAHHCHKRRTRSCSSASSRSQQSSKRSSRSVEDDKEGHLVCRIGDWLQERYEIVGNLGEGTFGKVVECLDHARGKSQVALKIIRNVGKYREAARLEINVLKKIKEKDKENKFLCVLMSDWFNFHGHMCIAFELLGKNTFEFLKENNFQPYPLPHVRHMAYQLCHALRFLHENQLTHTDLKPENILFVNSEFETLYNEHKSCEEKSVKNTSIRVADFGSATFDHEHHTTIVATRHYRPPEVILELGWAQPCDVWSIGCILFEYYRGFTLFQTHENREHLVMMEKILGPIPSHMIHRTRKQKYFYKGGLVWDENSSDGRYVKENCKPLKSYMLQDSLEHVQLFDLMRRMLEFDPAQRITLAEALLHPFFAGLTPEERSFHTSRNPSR
The target of assay [4] is Serine/threonine-protein kinase PLK3 (Homo sapiens, UniProt Q9H4B4). As to conditions: at 10 µM.
Chain of Serine/threonine-protein kinase PLK3 (Q9H4B4 whole entry, looked up): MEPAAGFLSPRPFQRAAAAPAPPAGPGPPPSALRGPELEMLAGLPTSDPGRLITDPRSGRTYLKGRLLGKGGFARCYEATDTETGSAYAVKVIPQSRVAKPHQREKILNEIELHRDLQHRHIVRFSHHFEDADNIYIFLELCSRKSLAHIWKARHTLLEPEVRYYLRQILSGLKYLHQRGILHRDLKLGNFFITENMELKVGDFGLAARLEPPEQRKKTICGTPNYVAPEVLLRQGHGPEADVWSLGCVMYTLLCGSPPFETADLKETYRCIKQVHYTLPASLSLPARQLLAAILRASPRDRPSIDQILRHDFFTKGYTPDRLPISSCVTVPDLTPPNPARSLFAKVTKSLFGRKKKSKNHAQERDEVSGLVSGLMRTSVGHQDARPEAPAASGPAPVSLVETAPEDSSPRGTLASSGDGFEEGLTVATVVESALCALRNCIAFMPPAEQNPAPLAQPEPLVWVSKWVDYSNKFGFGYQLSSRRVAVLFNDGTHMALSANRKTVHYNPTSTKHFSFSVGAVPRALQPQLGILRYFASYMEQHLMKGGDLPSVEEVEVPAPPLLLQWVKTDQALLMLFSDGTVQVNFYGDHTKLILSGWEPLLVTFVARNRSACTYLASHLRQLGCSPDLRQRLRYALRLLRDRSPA
In assay [5] the target is Serine/threonine-protein kinase MARK2 (Homo sapiens) (UniProt Q7KZI7). The assay is described as follows: Selectivity interaction (ActivX KiNativ screen (kinase selectivity in THP-1 cell lysates)) EUB0000639a MARK2. It is filed as subcellular. The note with it: lysate, at 1 µM.
Chain of Serine/threonine-protein kinase MARK2 (Homo sapiens) (Q7KZI7 whole entry): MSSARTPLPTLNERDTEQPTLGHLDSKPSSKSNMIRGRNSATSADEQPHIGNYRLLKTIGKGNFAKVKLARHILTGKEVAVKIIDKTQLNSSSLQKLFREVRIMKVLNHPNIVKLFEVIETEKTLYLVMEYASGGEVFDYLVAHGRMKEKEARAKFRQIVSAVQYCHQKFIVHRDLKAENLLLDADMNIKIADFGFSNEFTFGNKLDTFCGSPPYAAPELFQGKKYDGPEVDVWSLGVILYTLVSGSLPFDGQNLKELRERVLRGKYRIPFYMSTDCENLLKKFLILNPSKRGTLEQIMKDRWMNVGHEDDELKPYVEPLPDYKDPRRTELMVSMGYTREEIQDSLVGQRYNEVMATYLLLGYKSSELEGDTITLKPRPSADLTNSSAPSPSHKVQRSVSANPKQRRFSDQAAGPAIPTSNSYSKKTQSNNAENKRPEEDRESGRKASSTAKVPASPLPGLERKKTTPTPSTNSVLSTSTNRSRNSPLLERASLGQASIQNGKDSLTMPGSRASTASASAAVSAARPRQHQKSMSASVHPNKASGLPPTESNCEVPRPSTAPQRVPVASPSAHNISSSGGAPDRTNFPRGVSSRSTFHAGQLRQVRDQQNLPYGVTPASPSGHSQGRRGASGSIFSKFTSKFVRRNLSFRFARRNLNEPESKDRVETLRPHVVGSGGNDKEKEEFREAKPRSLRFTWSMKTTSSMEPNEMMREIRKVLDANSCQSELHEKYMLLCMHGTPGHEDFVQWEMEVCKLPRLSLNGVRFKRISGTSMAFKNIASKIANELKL
The target in assay [6] is T2, SNF-related serine/threonine-protein kinase (Homo sapiens) (UniProt Q9NRH2).
T2 sequence (whole entry): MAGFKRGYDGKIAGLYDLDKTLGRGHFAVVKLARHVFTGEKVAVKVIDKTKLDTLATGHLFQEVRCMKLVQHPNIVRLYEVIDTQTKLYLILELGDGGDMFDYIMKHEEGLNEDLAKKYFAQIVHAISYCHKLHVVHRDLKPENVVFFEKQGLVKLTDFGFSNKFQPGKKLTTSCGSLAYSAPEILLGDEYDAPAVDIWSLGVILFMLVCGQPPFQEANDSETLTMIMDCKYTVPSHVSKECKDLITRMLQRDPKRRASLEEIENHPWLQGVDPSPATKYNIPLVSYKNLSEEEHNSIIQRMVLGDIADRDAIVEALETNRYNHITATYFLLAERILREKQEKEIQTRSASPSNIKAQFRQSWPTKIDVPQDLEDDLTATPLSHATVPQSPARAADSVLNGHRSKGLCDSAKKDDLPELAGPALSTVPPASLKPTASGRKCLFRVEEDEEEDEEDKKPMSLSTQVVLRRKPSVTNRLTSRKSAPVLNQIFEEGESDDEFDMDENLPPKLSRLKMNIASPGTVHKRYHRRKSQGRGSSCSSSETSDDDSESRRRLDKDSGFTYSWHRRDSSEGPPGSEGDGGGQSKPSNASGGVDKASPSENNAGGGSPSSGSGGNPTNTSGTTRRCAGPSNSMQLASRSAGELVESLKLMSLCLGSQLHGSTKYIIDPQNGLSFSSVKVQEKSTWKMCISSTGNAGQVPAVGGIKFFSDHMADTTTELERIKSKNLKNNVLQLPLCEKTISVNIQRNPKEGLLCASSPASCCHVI
The assay is described as follows: Selectivity interaction (Ambit KINOMEscan and KiNATiv profiling in Jurkat cells) EUB0000090b SNRK. The assay is classed as cell-based. As to conditions: at 1 µM.

The target in assay [7] is Calcium/calmodulin-dependent protein kinase type II subunit delta (Homo sapiens) (UniProt Q13557). The assay is described as follows: Selectivity interaction (KinomeScan (DiscoverX)) EUB0001049a CAMK2D. As to conditions: at 1 µM.
Chain of Calcium/calmodulin-dependent protein kinase type II subunit delta (Homo sapiens) (Q13557 whole entry): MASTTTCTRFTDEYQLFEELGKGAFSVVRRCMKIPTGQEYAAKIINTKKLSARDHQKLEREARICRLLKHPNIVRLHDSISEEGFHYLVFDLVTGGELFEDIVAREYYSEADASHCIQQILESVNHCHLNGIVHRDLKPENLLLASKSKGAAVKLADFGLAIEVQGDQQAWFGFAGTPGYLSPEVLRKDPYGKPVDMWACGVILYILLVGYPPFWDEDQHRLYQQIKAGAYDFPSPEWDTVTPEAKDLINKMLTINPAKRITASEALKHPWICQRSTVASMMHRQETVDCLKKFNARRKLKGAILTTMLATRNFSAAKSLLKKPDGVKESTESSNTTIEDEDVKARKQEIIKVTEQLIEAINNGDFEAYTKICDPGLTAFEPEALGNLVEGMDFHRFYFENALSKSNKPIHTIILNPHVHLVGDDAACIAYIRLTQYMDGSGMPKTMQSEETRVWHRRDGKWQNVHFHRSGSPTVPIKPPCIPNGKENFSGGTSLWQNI
Assay [8] has as its target Lethal(3)malignant brain tumor-like protein 1 (Homo sapiens) (UniProt Q9Y468). The assay is described as follows: Selectivity interaction (Transferase panel (protein, RNA, and DNA methyltransferases. and EP300 (acetyltransferase))) EUB0000270b L3MBTL. As to conditions: at 1 µM.
Assay [9] addresses Serine/threonine-protein kinase pim-2 (Homo sapiens, UniProt Q9P1W9). The experiment in a line: Selectivity interaction (KinomeScan (DiscoverX)) EUB0001079a PIM2. As to conditions: at 1 µM.

Chain of Lethal(3)malignant brain tumor-like protein 1 (Homo sapiens) (Q9Y468 whole entry): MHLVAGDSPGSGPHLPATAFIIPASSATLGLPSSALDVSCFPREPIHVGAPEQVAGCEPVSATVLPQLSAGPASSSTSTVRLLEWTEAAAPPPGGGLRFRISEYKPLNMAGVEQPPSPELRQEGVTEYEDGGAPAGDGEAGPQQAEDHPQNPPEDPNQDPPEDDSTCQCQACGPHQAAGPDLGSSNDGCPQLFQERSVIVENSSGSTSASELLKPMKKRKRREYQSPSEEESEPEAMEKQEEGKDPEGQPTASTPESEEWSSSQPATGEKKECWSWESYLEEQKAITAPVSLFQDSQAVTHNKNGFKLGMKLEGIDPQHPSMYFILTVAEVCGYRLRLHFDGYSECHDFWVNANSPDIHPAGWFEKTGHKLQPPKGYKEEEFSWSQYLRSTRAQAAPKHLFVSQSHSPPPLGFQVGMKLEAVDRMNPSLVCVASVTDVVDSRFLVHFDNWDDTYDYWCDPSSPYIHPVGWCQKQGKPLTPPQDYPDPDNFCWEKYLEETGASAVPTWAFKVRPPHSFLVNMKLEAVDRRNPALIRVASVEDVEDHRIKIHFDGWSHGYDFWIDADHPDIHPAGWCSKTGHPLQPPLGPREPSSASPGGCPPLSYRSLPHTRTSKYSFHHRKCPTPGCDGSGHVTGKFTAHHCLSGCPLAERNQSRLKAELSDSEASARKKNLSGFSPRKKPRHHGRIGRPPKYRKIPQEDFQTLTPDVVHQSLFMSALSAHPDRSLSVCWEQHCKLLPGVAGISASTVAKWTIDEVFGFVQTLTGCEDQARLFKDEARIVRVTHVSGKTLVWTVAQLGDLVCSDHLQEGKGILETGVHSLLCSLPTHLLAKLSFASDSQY
Chain of Death-associated protein kinase 2 (Homo sapiens) (Q9UIK4 whole entry, looked up): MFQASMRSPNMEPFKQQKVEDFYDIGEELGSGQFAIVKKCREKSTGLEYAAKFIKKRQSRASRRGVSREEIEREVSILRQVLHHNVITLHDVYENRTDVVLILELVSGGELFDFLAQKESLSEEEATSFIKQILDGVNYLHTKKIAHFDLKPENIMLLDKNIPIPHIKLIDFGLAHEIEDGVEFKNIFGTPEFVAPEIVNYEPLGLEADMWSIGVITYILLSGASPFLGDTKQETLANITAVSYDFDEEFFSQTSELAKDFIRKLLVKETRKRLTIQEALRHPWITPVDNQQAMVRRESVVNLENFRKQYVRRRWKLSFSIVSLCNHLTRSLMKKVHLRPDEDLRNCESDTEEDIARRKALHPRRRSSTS
Chain of Serine/threonine-protein kinase pim-2 (Q9P1W9 whole entry, looked up): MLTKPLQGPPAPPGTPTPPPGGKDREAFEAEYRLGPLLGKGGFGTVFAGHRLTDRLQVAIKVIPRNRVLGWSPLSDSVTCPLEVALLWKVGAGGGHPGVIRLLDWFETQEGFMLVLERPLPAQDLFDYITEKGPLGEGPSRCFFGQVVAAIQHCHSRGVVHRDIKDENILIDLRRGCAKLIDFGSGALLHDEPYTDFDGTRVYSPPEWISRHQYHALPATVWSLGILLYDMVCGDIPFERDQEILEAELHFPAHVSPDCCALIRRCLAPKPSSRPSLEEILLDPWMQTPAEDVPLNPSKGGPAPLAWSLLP

`COCC(=O)NC/C=C/c1ccc2ncnc(Nc3ccc(Oc4ccc(C)nc4)c(C)c3)c2c1` [CP-724714]: in assay [1], the % of control amounted to 89%.
In [2], `Cc1cc(F)c(C(=O)Nc2cccc(-c3nncn3C(C)C)n2)cc1-n1cnc(C2CC2)c1` yielded a % of control of 85%.
On to `Cc1cc([C@@H](C)Nc2ccccc2C(=O)O)c2nc(N3CCOCC3)cc(=O)n2c1` [AZD-6482], for which the % of control was determined as 100% in assay [3] and 89% in assay [4].
`CC[C@@H]1[C@H](F)C(=O)N[C@@H]1COc1nccc2cc(C(N)=O)c(OC)cc12` [ZIMLOVISERTIB] yielded a % of inhibition in assay [5] of 23.8%.
In assay [6], `CN(C)C/C=C/C(=O)Nc1ccc(C(=O)N2CCCC(Nc3ncc(Cl)c(-c4c[nH]c5ccccc45)n3)C2)cc1` (centres undefined) returned a % of control of 93%.
Consider `COc1cc(Nc2nc(C)cc(-c3cnn4nc(OC)ccc34)n2)cc(C(F)(F)F)c1`, for which the % of control in assay [7] is 100%.
In the case of `Cc1cc(CN)cc(C)c1-c1ncn(C)c1-c1cncn1C`, the % activity in assay [8] is > 90%.
Compound `Nc1cnc(N2CCc3cc(S(=O)(=O)Nc4c(F)cc(Cl)cc4F)cc(N4CCCC4=O)c32)nc1` [TP-020n] gave a % of control in assay [9] of 85%.
